Patent US9328369B2, “Process for production of useful substance, and surfactant for use in the process” (priority 2009, dated 2016)

Tests used:
Escherichia coli (β) [1] = experiment: Screening of secretion efficiency, TorA expressing strain; assay type: cell-based; conditions: surfactant 1 wt %; 37° C., 1 hour; ELISA, anti-His-tag antibody
Source text: A torA gene of an Escherichia coli strain W3110 was amplified by the PCR method using primers 3 and 4 (Table 4). After being treated with restriction enzymes NdeI and BamHI, a PCR fragment was bound to an NdeI restriction enzyme site and a BamHI restriction enzyme site of a pET-22b plasmid (product of Novagen). Then, the plasmid was transformed into an AG1 (DE3) Escherichia coli strain to form a TorA expressing strain (β). Localization of the expressed TorA in a periplasmic fraction was confirmed by conducting an analysis based on the method disclosed in page 121 of Vol. 353 of METHODS IN ENZYMOLOGY (2002).
A pdxA gene of an Escherichia coli strain W3110 was amplified by the PCR method using primers 5 and 6 (Table 4). After being treated with restriction enzymes NdeI and BamHI, a PCR fragment was bound to an NdeI restriction enzyme site and a BamHI restriction enzyme site of a pET-22b plasmid (product of Novagen). Then, the plasmid was transformed into an AG1 (DE3) Escherichia coli strain to form a PdxA expressing strain (γ). Localization of the expressed PdxA in a cytoplasmic compartment was confirmed by conducting an analysis based on the method disclosed in page 121 of Vol. 353 of METHODS IN ENZYMOLOGY (2002). […]
(4) Then, the solution was allowed to stand at 37° C. for 1 hour. […] Here, the quantification of the recombinant protein in the resulting solution was carried out by ELISA assay with use of an anti-His-tag antibody. The sample prior to the centrifugation in the process (3) was treated with ultrasonic waves (200 W, 10 minutes) and the quantification of the recombinant protein therein was similarly carried out by ELISA assay with use of an anti-His-tag antibody. The ratio of lysed bacteria was obtained with use of Escherichia coli (γ), and the secretion efficiencies of the recombinant proteins of Escherichia coli (α) and (β) were calculated by using the following formula. […]
“Z” represents the ratio of lysed bacteria obtained with use of Escherichia coli (γ), which is determined by the following formula: Z=Z1/Z2. […]

Escherichia coli (β) [2] = experiment: Shake culture with surfactant, time course of protein production (Example 1, FIG. 1); assay type: cell-based; conditions: surfactant 1%; after 21 hours from the initiation
Method: Escherichia coli (β) was inoculated in 10 mL of an LB culture medium and was shake-cultured at 37° C. overnight. In this manner, a culture solution was prepared. The strains were collected using a centrifuge and the collected Escherichia coli (β) strain was resuspended in 10 ml of a TB culture medium (product of Difco). Shake culture at 37° C. induced expression of torA. Sampling was performed after 0, 0.5, 1, and 2 hours from the start of the shake culture, and harvesting using a centrifuge was carried out for each sampled solution. Collected bacterial cells were suspended in a buffer solution (50 mM Tris (pH 7.5), 100 mM NaCl) and ultrasonic fragmentation was performed (200 W, 10 minutes). Then, an SDS-PAGE analysis was performed to quantify the produced recombinant protein band. Based on the obtained data, the protein amount per gram of the bacterial cell was calculated and a graph was constructed.
The same processes were carried out as in Comparative Example 1 except that the surfactant A-7 was used as the surfactant (A) for the expression induction in an amount of 1% on the basis of the weight of the culture solution, and that sampling was performed after 0, 2, 4, 15, 19, and 21 hours from the initiation and analysis was performed on the supernatants of the centrifuged samples. A graph was similarly constructed.

Row | Substance | Secretion efficiency (%) Escherichia coli (β) (Escherichia coli (β) [1]) | Dried cell density of the culture solution (Escherichia coli (β) [2])
1 | Polyoxyethylene(3 mol)tridecyl ether sodium acetate [A-1] | 98.2% | –
2 | Sodium cocaminopropionate [A-7] | – | 1.72 g/L
3 | Cured palm oil fatty acid amidopropyl dimethyl aminoacetate betaine [A-6] | 85.4% | –
